# Test results from patent publication US7544694B2, “Substituted diaza-spiro-[5.5]-undecane derivatives and their use as neurokinin antagonists” (Janssen Pharmaceutica N.V., priority 2004, dated 2009).
# How the values were obtained:
# Format in all cases: cell-based
# [1] = molecular target: NK1 (Homo sapiens, UniProt P25103); test: Signal transduction (ST), intracellular Ca++ (FLIPR), functional NK1 antagonistic activity; conditions: antagonist, read-out: NK1 pIC50 (converted)
# Experimental: (§1) This test evaluates in vitro functional NK1 antagonistic activity. For the measurements of intracellular Ca^++ concentrations the cells were grown on 96-well (black wall/transparent bottom) plates from Costar for 2 days until they reached confluence. The cells were loaded with 2 μM Fluo3 in DMEM containing 0.1% BSA and 2.5 mM probenecid for 1 h at 37° C. They were washed 3× with a Krebs buffer (140 mM NaCl, 1 mM MgCl2×6H2O, 5 mM KCl, 10 mM glucose, 5 mM HEPES; 1.25 mM CaCl2; pH 7.4) containing 2.5 mM probenecid and 0.1% BSA (Ca^++-buffer). The cells were preincubated with a concentration range of antagonists for 20 min at RT and Ca^++-signals after addition of the agonists were measured in a Fluorescence Image Plate Reader (FLIPR from Molecular Devices, Crawley, England). The peak of the Ca^++-transient was considered as the relevant signal and the mean values of corresponding wells were analysed as described below.
# (§2) The sigmoidal dose response curves were analysed by computerised curve-fitting, using the GraphPad Program. The EC50-value of a compound is the effective dose showing 50% of maximal effect. For mean curves the response to the agonist with the highest potency was normalised to 100%. For antagonist responses the IC50-value was calculated using non-linear regression.
# (§3) The last columns indicate—without being limited thereto—for which action the compounds might be most suitable. Of course, since for some neurokinin receptors no data was determined, it is obvious that these compounds might be attributed to another suitable use.
# [2] = molecular target: T1, NK2 (Homo sapiens, UniProt P21452); test: Signal transduction (ST), intracellular Ca++ (FLIPR), NK2; conditions: antagonist, read-out: NK2 pIC50 (converted)
# T1 sequence (P21452 1-398): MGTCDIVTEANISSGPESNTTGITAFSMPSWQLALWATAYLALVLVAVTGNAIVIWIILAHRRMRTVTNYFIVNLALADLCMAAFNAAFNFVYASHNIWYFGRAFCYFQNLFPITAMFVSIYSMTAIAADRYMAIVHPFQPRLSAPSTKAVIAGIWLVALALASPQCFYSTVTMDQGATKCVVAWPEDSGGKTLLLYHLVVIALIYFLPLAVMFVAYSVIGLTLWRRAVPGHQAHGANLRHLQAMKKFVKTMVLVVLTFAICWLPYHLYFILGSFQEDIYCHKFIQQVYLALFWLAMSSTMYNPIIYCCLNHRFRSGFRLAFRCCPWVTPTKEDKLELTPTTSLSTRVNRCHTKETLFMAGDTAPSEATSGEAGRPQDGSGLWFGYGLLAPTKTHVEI
# Experimental: [The source words this procedure for another target and reports this target under the same test.] as §1, §2, §3
# [3] = molecular target: T2, NK3 (Homo sapiens, UniProt P29371); test: Signal transduction (ST), intracellular Ca++ (FLIPR), NK3; conditions: antagonist, read-out: NK3 pIC50 (converted)
# T2 sequence (P29371 1-465): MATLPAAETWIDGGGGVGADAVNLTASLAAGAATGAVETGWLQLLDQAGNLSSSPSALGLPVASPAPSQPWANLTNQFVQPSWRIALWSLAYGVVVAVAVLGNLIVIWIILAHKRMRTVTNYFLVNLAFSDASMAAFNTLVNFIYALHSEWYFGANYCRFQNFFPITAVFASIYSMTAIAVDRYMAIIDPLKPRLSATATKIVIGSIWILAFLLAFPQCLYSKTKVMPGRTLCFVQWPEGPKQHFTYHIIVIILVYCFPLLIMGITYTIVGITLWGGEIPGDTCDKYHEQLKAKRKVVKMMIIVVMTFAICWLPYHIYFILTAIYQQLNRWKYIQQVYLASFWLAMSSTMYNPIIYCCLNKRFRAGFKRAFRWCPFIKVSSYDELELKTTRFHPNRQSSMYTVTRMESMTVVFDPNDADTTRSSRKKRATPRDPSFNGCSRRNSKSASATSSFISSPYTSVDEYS
# Experimental: [The source words this procedure for another target and reports this target under the same test.] as §1, §2, §3
# NK1, sequence (P25103 whole entry): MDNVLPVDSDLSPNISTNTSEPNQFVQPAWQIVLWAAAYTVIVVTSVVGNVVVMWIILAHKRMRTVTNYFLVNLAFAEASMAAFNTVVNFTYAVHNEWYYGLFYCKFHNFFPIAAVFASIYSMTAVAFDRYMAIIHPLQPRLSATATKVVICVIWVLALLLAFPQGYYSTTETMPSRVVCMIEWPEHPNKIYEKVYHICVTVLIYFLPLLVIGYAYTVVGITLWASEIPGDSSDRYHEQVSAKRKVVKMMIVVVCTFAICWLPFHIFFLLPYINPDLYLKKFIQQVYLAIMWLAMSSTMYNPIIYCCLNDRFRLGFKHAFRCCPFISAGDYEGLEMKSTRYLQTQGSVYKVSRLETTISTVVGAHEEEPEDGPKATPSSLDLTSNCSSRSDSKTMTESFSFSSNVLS
Compound,IC50 [1] [nM],IC50 [2] [nM],IC50 [3] [nM]
Cc1cn(CC(=O)N2CCC3(CC2)CCN([C@H]2CCN(C(=O)c4cc(C(F)(F)F)cc(C(F)(F)F)c4)[C@H](Cc4ccccc4)C2)CC3)c(=O)[nH]c1=O [Compound 80],29.5,> 10000,> 10000
O=C(Cc1ccc2c(c1)OCO2)N1CCC2(CC1)CCN([C@H]1CCN(C(=O)c3cc(C(F)(F)F)cc(C(F)(F)F)c3)[C@H](Cc3ccccc3)C1)CC2 [Compound 81],115,5250,> 10000
O=C1OC(CC(=O)N2CCC3(CC2)CCN([C@H]2CCN(C(=O)c4cc(C(F)(F)F)cc(C(F)(F)F)c4)[C@H](Cc4ccccc4)C2)CC3)c2ccccc21 (stereo partly drawn) [Compound 82],46.8,2000,8910
COc1cccc(CCC(=O)N2CCC3(CC2)CCN([C@H]2CCN(C(=O)c4cc(C(F)(F)F)cc(C(F)(F)F)c4)[C@H](Cc4ccccc4)C2)CC3)c1 [Compound 83],36.3,2570,8910
O=C(C=Cc1ccco1)N1CCC2(CC1)CCN([C@H]1CCN(C(=O)c3cc(C(F)(F)F)cc(C(F)(F)F)c3)[C@H](Cc3ccccc3)C1)CC2 [Compound 84],282,7240,> 10000
O=C(C=Cc1ccoc1)N1CCC2(CC1)CCN([C@H]1CCN(C(=O)c3cc(C(F)(F)F)cc(C(F)(F)F)c3)[C@H](Cc3ccccc3)C1)CC2 [Compound 85],309,> 10000,> 10000
C/C(=C\C(=O)N1CCC2(CC1)CCN([C@H]1CCN(C(=O)c3cc(C(F)(F)F)cc(C(F)(F)F)c3)[C@H](Cc3ccccc3)C1)CC2)C(F)(F)F [Compound 86],129,> 10000,> 10000
O=C(C(CO)c1ccccc1)N1CCC2(CC1)CCN([C@H]1CCN(C(=O)c3cc(C(F)(F)F)cc(C(F)(F)F)c3)[C@H](Cc3ccccc3)C1)CC2 (stereo partly drawn) [Compound 88],41.7,3020,> 10000
O=C(c1cc(C(F)(F)F)cc(C(F)(F)F)c1)N1CC[C@H](N2CCC3(CCN(C(=O)C4(c5ccccc5)CC4)CC3)CC2)C[C@H]1Cc1ccccc1 [Compound 89],148,2510,> 10000
O=C(c1cc(C(F)(F)F)cc(C(F)(F)F)c1)N1CC[C@H](N2CCC3(CCN(C(=O)C4(c5ccccc5)CCCC4)CC3)CC2)C[C@H]1Cc1ccccc1 [Compound 90],355,5370,> 10000
O=C(c1cc(C(F)(F)F)cc(C(F)(F)F)c1)N1CC[C@H](N2CCC3(CC2)CCN(S(=O)(=O)C(F)(F)F)CC3)C[C@H]1Cc1ccccc1 [Compound 91],87.1,1380,4370
O=C(c1cc(C(F)(F)F)cc(C(F)(F)F)c1)N1CC[C@H](N2CCC3(CC2)CCN(S(=O)(=O)c2c(Cl)sc(Cl)c2Br)CC3)C[C@H]1Cc1ccccc1 [Compound 99],562,> 10000,> 10000
Cc1nc(S(=O)(=O)N2CCC3(CCN([C@H]4CCN(C(=O)c5cc(C(F)(F)F)cc(C(F)(F)F)c5)[C@H](Cc5ccccc5)C4)CC3)CC2)cn1C [Compound 100],12,1260,331
Cc1noc(C)c1S(=O)(=O)N1CCC2(CCN([C@H]3CCN(C(=O)c4cc(C(F)(F)F)cc(C(F)(F)F)c4)[C@H](Cc4ccccc4)C3)CC2)CC1 [Compound 101],49,2000,6030
O=C(c1cc(C(F)(F)F)cc(C(F)(F)F)c1)N1CC[C@H](N2CCC3(CC2)CCN(S(=O)(=O)c2ccccc2)CC3)C[C@H]1Cc1ccccc1 [Compound 102],61.7,> 10000,708
Cc1ccccc1S(=O)(=O)N1CCC2(CCN([C@H]3CCN(C(=O)c4cc(C(F)(F)F)cc(C(F)(F)F)c4)[C@H](Cc4ccccc4)C3)CC2)CC1 [Compound 103],50.1,2510,1510
Cc1cccc(S(=O)(=O)N2CCC3(CCN([C@H]4CCN(C(=O)c5cc(C(F)(F)F)cc(C(F)(F)F)c5)[C@H](Cc5ccccc5)C4)CC3)CC2)c1 [Compound 104],64.6,~4570,1950
Cc1ccc(S(=O)(=O)N2CCC3(CCN([C@H]4CCN(C(=O)c5cc(C(F)(F)F)cc(C(F)(F)F)c5)[C@H](Cc5ccccc5)C4)CC3)CC2)cc1 [Compound 105],105,2450,2000
O=C(c1cc(C(F)(F)F)cc(C(F)(F)F)c1)N1CC[C@H](N2CCC3(CC2)CCN(S(=O)(=O)c2c(Cl)cccc2Cl)CC3)C[C@H]1Cc1ccccc1 [Compound 111],204,~229,5370
O=C(c1cc(C(F)(F)F)cc(C(F)(F)F)c1)N1CC[C@H](N2CCC3(CC2)CCN(S(=O)(=O)c2cc(Cl)cc(Cl)c2)CC3)C[C@H]1Cc1ccccc1 [Compound 114],363,> 10000,> 10000

# Continued, values first:
IC50 [1] [nM],IC50 [2] [nM],IC50 [3] [nM],Compound
17,1320,339,O=C(c1cc(C(F)(F)F)cc(C(F)(F)F)c1)N1CCC(N2CCC3(CC2)CCN(S(=O)(=O)c2cccs2)CC3)CC1Cc1ccccc1 (stereo not drawn) [Compound 92]
25.7,1100,501,O=C(c1cc(C(F)(F)F)cc(C(F)(F)F)c1)N1CC[C@H](N2CCC3(CC2)CCN(S(=O)(=O)c2ccsc2)CC3)C[C@H]1Cc1ccccc1 [Compound 93]
132,> 10000,575,O=C(c1cc(C(F)(F)F)cc(C(F)(F)F)c1)N1CC[C@H](N2CCC3(CC2)CCN(S(=O)(=O)c2ccc(Cl)s2)CC3)C[C@H]1Cc1ccccc1 [Compound 94]
269,1910,2340,O=C(c1cc(C(F)(F)F)cc(C(F)(F)F)c1)N1CC[C@H](N2CCC3(CC2)CCN(S(=O)(=O)c2ccc(Br)s2)CC3)C[C@H]1Cc1ccccc1 [Compound 95]
468,1260,~10000,O=C(c1cc(C(F)(F)F)cc(C(F)(F)F)c1)N1CC[C@H](N2CCC3(CC2)CCN(S(=O)(=O)c2cc(Cl)c(Cl)s2)CC3)C[C@H]1Cc1ccccc1 [Compound 96]
977,> 10000,> 10000,O=C(c1cc(C(F)(F)F)cc(C(F)(F)F)c1)N1CC[C@H](N2CCC3(CC2)CCN(S(=O)(=O)c2cc(Br)c(Br)s2)CC3)C[C@H]1Cc1ccccc1 [Compound 98]
115,4170,3160,O=C(c1cc(C(F)(F)F)cc(C(F)(F)F)c1)N1CC[C@H](N2CCC3(CC2)CCN(S(=O)(=O)c2cccc(Cl)c2)CC3)C[C@H]1Cc1ccccc1 [Compound 107]
324,2630,3980,O=C(c1cc(C(F)(F)F)cc(C(F)(F)F)c1)N1CC[C@H](N2CCC3(CC2)CCN(S(=O)(=O)c2ccc(Cl)cc2)CC3)C[C@H]1Cc1ccccc1 [Compound 108]
550,> 10000,> 10000,O=C(c1cc(C(F)(F)F)cc(C(F)(F)F)c1)N1CC[C@H](N2CCC3(CC2)CCN(S(=O)(=O)c2ccc(Cl)cc2Cl)CC3)C[C@H]1Cc1ccccc1 [Compound 112]
427,> 10000,> 10000,O=C(c1cc(C(F)(F)F)cc(C(F)(F)F)c1)N1CC[C@H](N2CCC3(CC2)CCN(S(=O)(=O)c2ccc(Cl)c(Cl)c2)CC3)C[C@H]1Cc1ccccc1 [Compound 113]
